Measured values as given in patent US20220106564A1, “COMPOSITION AND KIT FOR DIFFERENTIATION OF STEM CELLS INTO NEURAL CREST STEM CELLS, INCLUDING INHIBITOR OF TGF-BETA I RECEPTOR AND BMP INHIBITOR, AND METHOD USING SAME” (CHA UNIVERSITY INDUSTRY-ACADEMIC COOPERATION FOUNDATION, priority 2019, published 2022).

Columns and labels:
[1] = system: H9 human embryonic stem cells (hESCs); experiment: Flow cytometry for P75 (neural crest stem cell marker) in cultured cells; format: cell-based; details: suspension about 3 days + adherent about 4 days (FIG. 3E)
Experimental: The obtained colonies were finely chopped and suspension-cultured under conditions of 37° C. and 5% CO2 in an EB medium containing 10 μM of SB431542 (GlaxoSmithKline: GSK) as a TGF-β I receptor inhibitor and 0.5 μM to 1 μM of dorsomorphin homolog 1 (DMH1) (Tocris Bioscience, USA) or dorsomorphin (Tocris Bioscience, […]). EB medium contained DMEM/F12 (Life Technologies), 20%(v/v) Knockout serum replacement (KSR, Invitrogen), lx non-essential amino acids (Invitrogen), 0.1 mM 13-mercaptoethanol (Invitrogen), and lx penicillin/streptomycin (Invitrogen). As a negative control, dimethyl sulfoxide (DMSO) (Sigma-Aldrich) was used instead of the drug. […] To analyze a proportion of cells expressing P75 protein which is a neural crest stem cell (NCSC) marker, or SOX1 which is a neural progenitor cell (NPC) marker, immunostaining was performed using phycoerythrin (PE)-labeled anti-P75 monoclonal antibody (1:50 dilution) (Miltenyi Biotec), and phycoerythrin (PE)-labeled anti-Sox1 monoclonal antibody (1:100 dilution) (BD Biosciences). The immunostained cells were subjected to flow cytometry using a BD FACSCalibur flow cytometer (BD Biosciences, Sparks, Md., USA). The results of flow cytometry are shown in FIGS. 2A and 2B (FIG. 2A: a graph of P75 flow cytometry, FIG. 2B: a graph of SOX1 flow cytometry). Cells suspension-cultured for about 3 days and adherent-cultured for about 4 days were subjected to P75 flow cytometry, as described in Example 1.2, and the results of flow cytometry are shown in FIG. 3E (upper: SB431542 and DMH1, lower: SB431542 and dorsomorphin).

[2] = system: H9 human embryonic stem cells (hESCs); experiment: Embryoid body count after suspension culture of H9 hESCs; format: cell-based; details: increasing concentrations of DMH1 in EB medium with 10 μM SB431542; suspension culture about 4 days; p<0.001
Experimental: Colonies obtained by culturing H9 human embryonic stem cells (hESCs) (WiCell Research Institute, Inc. Madison, Wis., U.S.A.) in a culture medium were dissociated into single cells using accutase (Life Technologies). The cells dissociated into single cells were seeded in a culture plate coated with a protein such as vitronectin (VTN) (vitronectin XF, STEMCELL Technologies), […]-521, Thermo Fisher Scientific Inc., Waltham, Mass., USA), fibronectin (Thermo Fisher Scientific Inc.), or MatrigelTM (StemCell Technologies, Inc.). An embryonic stem cell (ESC) culture medium was added to the seeded cells to perform undifferentiation culture. As the ESC culture medium, Essential 8 (E8) medium (StemCell Technologies Inc.), TeSR2 medium (StemCell Technologies Inc), StemMACS (Miltenyi Biotec, Bergisch Gladbach, Germany), etc. was used. […] The number of round-shaped embryoid bodies were counted, and the number of embryoid bodies per unit area (embryoid body/cm^2) according to DMH1 concentrations is shown in FIG. 1D (***: p<0.001).

Compound | proportion of P75-expressing cells ([1]; 0.5 μM BMP inhibitor in EB medium containing 10 μM SB431542 and dorsomorphin) [%] | number of embryoid bodies per unit area [2] | proportion of P75-expressing cells ([1]; 0.5 μM to 1 μM DMH1 + 10 μM SB431542) [%] | proportion of P75-expressing cells ([1]; 2.5 μM DMH1 + 10 μM SB431542)
c1cc(-c2cnn3cc(-c4ccc(OCCN5CCCCC5)cc4)cnc23)ccn1 [dorsomorphin, 6-[4-[2-(1-Piperidinyl)pethoxy]phenyl]-3-(4-pyridinyl)-pyrazolo[1,5-a]pyrimidine] | ≥ 83.2 |  |  | 
CC(C)Oc1ccc(-c2cnc3c(-c4ccnc5ccccc45)cnn3c2)cc1 [DMH1, 4-[6-[4-(1-Methylethoxy)phenyl]pyrazolo[1,5-a]pyrimidin-3-yl]-quinoline] |  | significantly decreased | ≥ 69.8 | about 28.9%
